The text below walks through data of patent US9833466B2, “Treatment of leukemia with histone deacetylase inhibitors” (Acetylon Pharmaceuticals Inc., priority 2014, dated 2017).

The test system of the experiment is GATA2. As to the kind of experiment: GATA2 expression in MV4-11 AML cell line. Format: cell-based. The settings on record: 48 h and 72 h. As for the experimental part: FIG. 16. […] (A-B) MV4-11 cells were plated at 2×10^5 cells/ml at indicated doses for 48 h and 72 h. RNA was prepared and analyzed for GATA2 and GAPDH as internal control.

“Also recorded” adds a separate entry of the source.

Take `Nc1ccc(-c2cccs2)cc1NC(=O)c1ccc2c(c1)cc(C1CC1)n2CCN1CCOCC1` [Compound E, N-(2-amino-5-(thiophen-2-yl)phenyl)-2-cyclopropyl-1-(2-morpholinoethyl)-1H-indole-5-carboxamide]: the GATA2 expression entry (combination of azacitidine and Compound E) was “further induced GATA2 expression; also recorded: synergistically induce GATA2 expression”. Also, under “single agent at 1 uM”, the GATA2 level entry is reported as “induced GATA2 level”.
